Experiments:
[1] = Determination of brain penetration in SD rats; format: in vivo; settings: Sprague-Dawley (SD), rat; male SD rats, IV 0.2 mg/kg, unbound brain to plasma ratio at 8 h; read-out: Kpuu, brain
Method: Total brain levels, expressed as brain/plasma ratio (Kp,brain) were measured by Cbrain@8h/Cplasma@8h in SD rats after IV administration (see Pharmaceutical Research, Vol. 25, No. 8, August 2008 DOI: 10.1007/s11095-007-9502-2; Pharmaceutical Research (2022) 39:1321-1341 https://doi.org/10.1007/s11095-022-03246-6). Unbound fraction of each molecule in biological matrix was determined by in vitro plasma and brain binding assay. Kpuu, brain was calculated by the following equation: […]
In vitro plasma and brain binding assay was carried out on a RED (Rapid Equilibrium Dialysis) device. Unbound fraction (fu) of each molecule in the brain homogenate and plasma were calculated by the ratio of the buffer side response to the brain homogenate/plasma side response. An IV study design was used as the in vivo screening model to identify brain penetration of each molecule. Male naïve SD rats (n=3) were intravenously dosed with each molecule at 0.2 mg/kg in DMSO/Propylene Glycol/Water, 20:60:20 (v/v/v). At 0.083, 0.25, 0.5, 1, 2, 4, and 8 h post-dose plasma samples were collected via tail vein and brain tissue was harvested at the 8 h time point and homogenized in 3× volume of water. All samples were stored at ˜−80° C. prior to LC/MS/MS analysis. At the 8 h time point, the unbound brain to plasma ratios were generated to identify molecules with Kpuu, brain values>0.3 which is indicative of good passive brain penetration.

[2] = target: T1, SHP-2 enzyme (Met1-Leu525), SHP2wt (Homo sapiens, UniProt Q06124); assay: SHP2 inhibition enzymatic assay; format: biochemical; settings: 0.5 nM SHP-2 activated by 500 nM IRS1 peptide, 75 μM DiFMUP substrate
T1 construct: synthetized by Origene, Met1-Leu525, cat #TP750155; purchased Origene TP750155
T1 sequence (Q06124 1-525): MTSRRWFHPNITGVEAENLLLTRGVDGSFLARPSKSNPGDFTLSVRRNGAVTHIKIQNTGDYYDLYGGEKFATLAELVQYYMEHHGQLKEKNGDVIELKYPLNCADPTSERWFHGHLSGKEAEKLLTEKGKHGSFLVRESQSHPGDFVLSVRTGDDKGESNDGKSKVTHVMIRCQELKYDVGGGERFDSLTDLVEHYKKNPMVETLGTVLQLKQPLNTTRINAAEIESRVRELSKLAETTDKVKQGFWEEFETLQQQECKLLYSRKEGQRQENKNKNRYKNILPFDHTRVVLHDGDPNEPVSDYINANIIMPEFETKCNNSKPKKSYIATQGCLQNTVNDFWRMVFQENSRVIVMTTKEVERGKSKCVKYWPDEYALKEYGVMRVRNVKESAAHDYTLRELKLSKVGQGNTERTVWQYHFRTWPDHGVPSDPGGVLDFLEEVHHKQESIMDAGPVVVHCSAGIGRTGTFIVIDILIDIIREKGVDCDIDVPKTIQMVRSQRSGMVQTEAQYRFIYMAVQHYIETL
Method in brief: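 Human SHP2 (Met1-Leu525, 0.5 nM) activated by 500 nM bis-phosphorylated IRS1 peptide, pre-incubated 30 min with compound, then 75 μM DiFMUP for 30 min at rt in HEPES pH 7.2, NaCl/KCl, EDTA, Tween-20, 5 mM DTT. Reaction quenched with bpV, fluorescence read; IC50 by four-parameter logistic fit.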

[3] = system: phospho-ERK1/2 (Thr202/Tyr204); assay: Phospho-ERK cellular assay; format: cell-based; settings: Homo sapiens; KYSE-520 cells, 2 h at 37° C, TR-FRET; read-out: pERK IC50
Method in brief: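 KYSE-520 cells treated overnight-after-plating with serially diluted compounds for 2 h at 37° C, then lysed. Phospho-ERK1/2 measured by TR-FRET after overnight antibody incubation at rt; inhibition normalized between DMSO (0%) and no-cell (100%) wells, IC50 from four-parameter logistic fit.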

[4] = target: T2, recombinant SHP2 protein (AviTag-G4SG4S-SHP2(1-525)) (Homo sapiens, UniProt Q06124); assay: Binding kinetic assay by surface plasmon resonance (SPR); settings: for Residence time 1/koff SPR: 1/koff from SPR; for koff: Biacore T200, single cycle kinetic, 25° C, 1:1 Langmuir model
T2 construct: recombinant SHP2 protein (AviTag-G4SG4S-SHP2(1-525)); purchased VIVA Biotech Ltd (custom production)
T2 sequence (Q06124 1-525): T1 sequence (Q06124 1-525)
Method: A N-term biotinylated recombinant SHP2 protein (AviTag-G4SG4S-SHP2(1-525)) was custom produced by VIVA Biotech Ltd. Binding kinetic rate constants were measured by SPR, using a Biacore T200 instrument. The recombinant SHP2 protein was diluted at […] in HBS-P+ buffer, then captured on a series S streptavidin sensor chip up to 5000 RU. Binding of compounds was assessed by a single cycle kinetic procedure (SCK): compounds were diluted in HBS-EP+ supplemented with 20% DMSO (from 300 to 3.7 nM, 3 fold dilution), injected for 120 s over the ligand, then dissociation rate measured for 3600 s, at […] and 25° C. Sensorgrams were analysed by Biacore T200 evaluation software: binding rate constants (kon, koff) and affinity (KD) were calculated by curve filling according to a 1:1 Langmuir model. Each molecule was tested in triplicate on separate flow channels.

SMILES	Kp uu at 8 h [1]	IC50 [2] [nM]	IC50 [3] [nM]	Residence time 1/koff SPR [4] [s]	koff [4] [s⁻¹]
Cc1c(N2CCC3(CC2)Cn2nccc2[C@H]3N)nc(C)n(-c2cccc(Cl)c2Cl)c1=O (single isomer, unassigned) [Example 3]	> 0.3	≤ 50	< 100	8065	0.000124
N[C@@H]1c2ccnn2CC12CCN(c1cnc(Oc3cccc(Cl)c3Cl)cn1)CC2 [Example 2, (S)-1-(5-(2,3-dichlorophenoxy)pyrazin-2-yl)-4′H,6′H-spiro[piperidine-4,5′-pyrrolo[1,2-b]pyrazol]-4′-amine]	> 0.3	≤ 50	100 to 500	1944	0.000514
N[C@@H]1c2ccnn2CC12CCN(c1cnc(Sc3cccc(-n4cccn4)c3Cl)cn1)CC2 [Example 10, (S)-1-(5-((2-chloro-3-(1H-pyrazol-1-yl)phenyl)thio)pyrazin-2-yl)-4′H,6′H-spiro[piperidine-4,5′-pyrrolo[1,2-b]pyrazol]-4′-amine]	> 0.3	≤ 50	< 100	90909	1.1e-05
N[C@@H]1c2ccnn2CC12CCN(c1cnc(Sc3cccc(F)c3C(F)F)cn1)CC2 [Example 71, (S)-1-(5-((2-(difluoromethyl)-3-fluorophenyl)thio)pyrazin-2-yl)-4′H,6′H-spiro[piperidine-4,5′-pyrrolo[1,2-b]pyrazol]-4′-amine]	–	≤ 50	< 100	–	–
N#Cc1ccc(Sc2cnc(N3CCC4(CC3)Cn3nccc3[C@H]4N)cn2)c(F)c1 [Example 76, (S)-4-((5-(4′-amino-4′H,6′H-spiro[piperidine-4,5′-pyrrolo[1,2-b]pyrazol]-1-yl)pyrazin-2-yl)thio)-3-fluorobenzonitrile]	–	≤ 50	< 100	–	–
N[C@@H]1c2ccnn2CC12CCN(c1cnc(Oc3ccc(Cl)cc3F)cn1)CC2 [Example 79, (S)-1-(5-(4-chloro-2-fluorophenoxy)pyrazin-2-yl)-4′H,6′H-spiro[piperidine-4,5′-pyrrolo[1,2-b]pyrazol]-4′-amine]	–	≤ 50	100 to 500	–	–
N[C@@H]1c2ccnn2CC12CCN(c1cnc(Sc3cccc(-n4cccn4)c3F)cn1)CC2 [Example 81, (S)-1-(5-((2-fluoro-3-(1H-pyrazol-1-yl)phenyl)thio)pyrazin-2-yl)-4′H,6′H-spiro[piperidine-4,5′-pyrrolo[1,2-b]pyrazol]-4′-amine]	–	≤ 50	< 100	–	–
N[C@@H]1c2ccnn2CC12CCN(c1cnc(Sc3cccc(-n4ccnc4C(F)F)c3Cl)cn1)CC2 [Example 82, (S)-1-(5-((2-chloro-3-(2-(difluoromethyl)-1H-imidazol-1-yl)phenyl)thio)pyrazin-2-yl)-4′H,6′H-spiro[piperidine-4,5′-pyrrolo[1,2-b]pyrazol]-4′-amine]	–	≤ 50	< 100	–	–

More lines, now with the values ahead:

Kp uu at 8 h [1]	IC50 [2] [nM]	IC50 [3] [nM]	Residence time 1/koff SPR [4] [s]	koff [4] [s⁻¹]	SMILES
–	≤ 50	< 100	12664	7.9e-05	Cc1c(F)ccc(Sc2cnc(N3CCC4(CC3)Cn3nccc3[C@H]4N)cn2)c1F [Example 45, (S)-1-(5-((2,4-difluoro-3-methylphenyl)thio)pyrazin-2-yl)-4′H,6′H-spiro[piperidine-4,5′-pyrrolo[1,2-b]pyrazol]-4′-amine]
–	≤ 50	< 100	–	–	N[C@@H]1c2ccnn2CC12CCN(c1cnc(Sc3ccc(Cl)c4ncccc34)cn1)CC2 [Example 70, (S)-1-(5-((8-chloroquinolin-5-yl)thio)pyrazin-2-yl)-4′H,6′H-spiro[piperidine-4,5′-pyrrolo[1,2-b]pyrazol]-4′-amine]
–	≤ 50	< 100	–	–	N[C@@H]1c2ccnn2CC12CCN(c1cnc(Sc3ccccc3C(F)F)cn1)CC2 [Example 72, (S)-1-(5-((2-(difluoromethyl)phenyl)thio)pyrazin-2-yl)-4′H,6′H-spiro[piperidine-4,5′-pyrrolo[1,2-b]pyrazol]-4′-amine]
–	≤ 50	< 100	–	–	N[C@@H]1c2ccnn2CC12CCN(c1cnc(Sc3ccc(OC(F)F)c4ncccc34)cn1)CC2 [Example 73, (S)-1-(5-((8-(difluoromethoxy)quinolin-5-yl)thio)pyrazin-2-yl)-4′H,6′H-spiro[piperidine-4,5′-pyrrolo[1,2-b]pyrazol]-4′-amine]
–	≤ 50	100 to 500	–	–	N[C@@H]1c2ccnn2CC12CCN(c1cnc(Sc3cc(C(F)F)ccc3F)cn1)CC2 [Example 74, (S)-1-(5-((5-(difluoromethyl)-2-fluorophenyl)thio)pyrazin-2-yl)-4′H,6′H-spiro[piperidine-4,5′-pyrrolo[1,2-b]pyrazol]-4′-amine]
–	≤ 50	< 100	–	–	N[C@@H]1c2ccnn2CC12CCN(c1cnc(Sc3c(F)cccc3F)cn1)CC2 [Example 75, (S)-1-(5-((2,6-difluorophenyl)thio)pyrazin-2-yl)-4′H,6′H-spiro[piperidine-4,5′-pyrrolo[1,2-b]pyrazol]-4′-amine]
–	≤ 50	100 to 500	–	–	N[C@@H]1c2ccnn2CC12CCN(c1cnc(Sc3cc(F)c(F)cc3F)cn1)CC2 [Example 77, (S)-1-(5-((2,4,5-trifluorophenyl)thio)pyrazin-2-yl)-4′H,6′H-spiro[piperidine-4,5′-pyrrolo[1,2-b]pyrazol]-4′-amine]
–	≤ 50	100 to 500	–	–	N[C@@H]1c2ccnn2CC12CCN(c1cnc(Oc3ccccc3F)cn1)CC2 [Example 78, (S)-1-(5-(2-fluorophenoxy)pyrazin-2-yl)-4′H,6′H-spiro[piperidine-4,5′-pyrrolo[1,2-b]pyrazol]-4′-amine]
–	≤ 50	100 to 500	–	–	N[C@@H]1c2ccnn2CC12CCN(c1cnc(Sc3cccc(F)c3-n3cccn3)cn1)CC2 [Example 80, (S)-1-(5-((3-fluoro-2-(1H-pyrazol-1-yl)phenyl)thio)pyrazin-2-yl)-4′H,6′H-spiro[piperidine-4,5′-pyrrolo[1,2-b]pyrazol]-4′-amine]
–	≤ 50	< 100	–	–	Cn1cc2ccc(Sc3cnc(N4CCC5(CC4)Cn4nccc4[C@H]5N)cn3)c(F)c2n1 [Example 83, (S)-1-(5-((7-fluoro-2-methyl-2H-indazol-6-yl)thio)pyrazin-2-yl)-4′H,6′H-spiro[piperidine-4,5′-pyrrolo[1,2-b]pyrazol]-4′-amine]
–	≤ 50	< 100	–	–	Cn1cc2c(Cl)c(Sc3cnc(N4CCC5(CC4)Cn4nccc4[C@H]5N)cn3)ccc2n1 [Example 84, (S)-1-(5-((4-chloro-2-methyl-2H-indazol-5-yl)thio)pyrazin-2-yl)-4′H,6′H-spiro[piperidine-4,5′-pyrrolo[1,2-b]pyrazol]-4′-amine]

— patent US20260109699A1, “AZOLE DERIVATIVES AS SHP2 INHIBITORS” (IRBM S.P.A., priority 2022, published 2026)
